Common to all, as to assay: NCI-60 cell line screen, 48 h
The test system of test [1] is A549 NSCLC.
Test [2] relates to CCRF-CEM leukemia.
The test system of test [3] is HCT-15 colon.
The test system of test [4] is MDA-MB-435.
The subject of test [5] is NCI-H522 lung.
The subject of test [6] is SF-268 CNS.
In test [7] the test system is SF-295 CNS.
Test [8] has as its system SK-MEL-2 melanoma.
Test [9] has as its system SW-620 colon.
For test [10], the system named is T-47D breast.

The source of these data is PubChem BioAssay (NCI).

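Values below derive from 48-hour exposures of cells grown in 96-well plates, with endpoints linearly interpolated between the two concentrations bracketing the appropriate inhibition level. TGI is the concentration that stops growth completely.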

On to `COC(=O)/C=C/[C@H]1[C@H](C)N1S(=O)(=O)c1ccc(C)cc1` (stereo not given in full), for which the TGI in test [1], in [2], in test [3], in test [4], in test [5] and in [6] was above 100 µM throughout. The TGI in test [7], in [8], in test [9] and in test [10] was above 100 µM each time.
`FC(F)(F)c1ccc(N=NN2CCCC2)cc1`: the TGI in test [1], in [2], in [3], in test [4], in test [5] and in [6] was above 100 µM throughout. The TGI in test [7], in test [8], in test [9] and in [10] was above 100 µM each time.
Regarding `CCOC(=O)C(C(=O)OCC)C(=S)NC1OC(COC(C)=O)C(OC(C)=O)C(OC(C)=O)C1OC(C)=O` (stereo not given), the TGI in test [1], in test [2], in test [3], in test [4], in test [5] and in [6] was above 100 µM in each case. Also, the TGI in [7], in test [8], in [9] and in test [10] was above 100 µM in each case.
Consider `CCN(CC)CCCNc1c2cc(OC)ccc2nc2cccc([N+](=O)[O-])c12`, for which the TGI stood at 0.507 µM in test [1]; 0.582 µM in test [2]; 0.314 µM in test [3]; 0.229 µM in test [4]; 0.0284 µM in [5]; 0.593 µM in [6]. The TGI in test [7] was determined as 0.796 µM; in [8], 0.32 µM; in test [9], 0.339 µM; in test [10], 0.618 µM.
Regarding `O=C(Nc1ccccn1)c1cc2c(cc1Cl)Sc1nccn1S2(=O)=O`, the TGI in test [1] was above 100 µM; in test [2], 95.9 µM; in test [3], above 100 µM; in test [4], above 100 µM; in test [5] it was above 100 µM; in test [6] it was above 100 µM. The TGI in test [7] was above 100 µM; in [8], 48.8 µM; in [9], above 100 µM; in test [10], 73.6 µM.
For the molecule `CN1CCN2CCN(C)CCN(CC1)CC2`, the TGI in test [1], in [2], in test [3], in test [4], in test [5] and in [6] was above 100 µM throughout. Further, the TGI in [7], in test [8], in test [9] and in [10] was above 100 µM in each case.
Take `c1ccc2c[n+](Cc3ccnc4ccccc34)ccc2c1`: the TGI in test [1], in test [2], in test [3], in [4], in test [5] and in [6] was above 100 µM in each case. In addition, the TGI in [7], in test [8], in test [9] and in test [10] was above 100 µM in each case.
For `C[C@@H](Br)[C@@H]1CC[C@H]2c3[nH]c4ccccc4c3CCN2C1`, the TGI in [1] is above 100 µM; in test [2], 54.8 µM; in [3], 48.1 µM; in test [4], 45.6 µM; in [5] it was 29.5 µM; in test [6] it was above 100 µM. For the same molecule, the TGI in test [7] worked out at 47.8 µM; in test [8], 50.6 µM; in [9], 70.8 µM; in test [10], 61.2 µM.
In the case of `CCOC1=NC(C(F)(F)F)(C(F)(F)F)N=C(/N=C(/N)N(C)C(C(C)C)P(=O)(OC(C)C)OC(C)C)O1` (stereo not given), the TGI in test [1] is above 100 µM; in test [2], 83.5 µM; in test [3], above 100 µM; in test [4], above 100 µM; in [5], 93.3 µM; in test [6], above 100 µM. Besides, the TGI in test [7], in [8], in [9] and in [10] was above 100 µM each time.
For `Cc1nc2ccccc2n1Cc1ccc(NC(=S)NC2CCCCC2)cc1`, the TGI in [1], in test [2], in [3], in [4], in test [5] and in [6] was above 100 µM in each case. Moreover, the TGI in test [7] is above 88.3 µM; in test [8], above 100 µM; in test [9] it was above 100 µM; in [10], above 82.3 µM.
As to `COc1ccc(-c2c3c(n(C4OC(COC(C)=O)C(OC(C)=O)C(OC(C)=O)C4OC(C)=O)c(=S)c2C#N)CCCC3)cc1` (stereo not given), the TGI in [1], in [2], in [3], in [4], in [5] and in test [6] was above 100 µM each time. Besides, the TGI is above 100 µM in test [7], 72.5 µM in test [8], above 100 µM in test [9] and above 100 µM in test [10].
Consider `CC1(C)C/C=C\CCC(O)C(O)CCC(C)(C)C1=O` (stereo not given), for which the TGI in test [1], in test [2], in [3], in [4], in test [5] and in test [6] was above 100 µM throughout. Moreover, the TGI in [7], in [8], in test [9] and in [10] was above 100 µM in each case.
As to `COc1ccc(OC/C(N=Cc2cccnc2)=N/NC(=O)c2ccncc2)cc1`, the TGI is above 100 µM in [1]; above 100 µM in test [2]; above 100 µM in [3]; 82.1 µM in test [4]; 34 µM in [5]; above 100 µM in [6]. The TGI in test [7], in [8], in [9] and in test [10] was above 100 µM throughout.
